# What was measured:
# [1] = Intra-tumoral pharmacokinetics bioanalytical assay; type: in vivo, female BALB/c nude mice; conditions: BID oral, 21 days; four parameter non-linear regression; FIG. 4C
# Protocol: Intra-tumoral Pharmacokinetics Bioanalytical Assay: Tumors were collected at 1 h and 12 h post the last dose and cut into 3 pieces. One piece of the tumor was weighted and snap frozen for drug exposure analysis. On the assay day, 3 volumes of H2O were added to the tumor tissue (3 mL to each gram of tissue), and homogenate at 4 degrees Celsius. The homogenate (30 μL) was mixed with 15 μL blank solution, then extracted and protein precipitation with 200 μL of acetonitrile containing IS (internal standard, dexamethasone). After vortexed for 30 s, the samples were centrifuged at 4 degrees Celsius, 3900 rpm for 15 minutes. The supernatant was diluted 3 times with water and 2 μL of diluted supernatant was injected into the LC/MS/MS system for quantitative analysis (AB API 5500). The Q1 to Q3 mass transition (m/z, Da) were 393.11 to 373.10 for dexamethasone and 421.98 to 202.30 for test compound. […]
# The concentration in the homogenate was quantified using standards prepared in control tumor tissues with concentrations range 0.5, 1, 2, 5, 10, 50, 100, 500, 1000 ng/mL. The determined concentration in the tumor homogenate was then back calculated to that in tumor tissue by multiplying with a dilution factor of 4.
# [2] = test system: breast, ovarian, and lung cell lines; assay: circBRIP1 levels in breast, ovarian, and lung cell lines; type: cell-based
# Protocol: Cells were plated at pre-determined cell densities in 384-well cell culture plates and incubated overnight in 37° C. at 5% CO2. […] Using TaqMan Multiplex Mastermix and thermal cycle conditions for the Quant Studio Thermocycler, qPCR was carried out as described above to quantify the level of circBRIP1.
# (§1) Data analysis was performed by using the QuantStudio Thermocycler software to determine threshold Ct values. ΔCt for circBRIP1 is calculated by normalizing the target gene Ct to the GAPDH housekeeping gene Ct for each sample.
# The inhibition activity (% Vehicle) is calculated by the following formulas, whereas: […]
# An EC50 was then calculated using a 4-parameter logistic nonlinear regression model in Scigilian Analyze or GraphPad Prism, floating both the top and bottom parameters. […]
# human PBMC = assay: circular and linear BRIP1 mRNA in fresh human PBMC (whole blood treated) by qPCR; type: cell-based; conditions: 24 hours, varying concentrations, FIGS. 9A-9D
# Protocol: This study was conducted to evaluate the circular format of BRIP1 mRNA in fresh human PBMC cells by qPCR.
# Human whole blood was obtained from Research Blood Components. Blood of each donor was aliquoted into vacutainer tubes containing Acid Citrate Dextrose (ACD).
# Test compounds were prepared in DMSO stock solution and serially diluted. Compound (0.1% final DMSO concentration) was added to vacutainer tubes containing human whole blood. Tubes were placed in tube rotator and incubated at 37 C for 24 hours.
# PBMCs were isolated from human whole blood after compound treatment by density gradient centrifugation using Ficoll-Paque Plus. RNA was extracted from PBMCs using RNeasy Plus Kits according to the manufacturer's (Qiagen) protocol. cDNA was reverse transcribed using RT^2 First Strand Kit according to the manufacturer's (Qiagen) protocol. […]
# as §1, with “circBRIP1 or linBRIP1 was” for “circBRIP1 is”, “sample. The inhibition activity was calculated by the following formula, whereas: […]” for “sample.”
smiles,measurement,setting,value
"Cc1cccnc1-c1csc(C(=O)Nc2cc(Cl)cc(NS(C)(=O)=O)c2)c1 [Compound 1, N-(3-chloro-5-methanesulfonamidophenyl)-4-(3-methylpyridin-2-yl)thiophene-2-carboxamide]",correlation of tumor drug exposure to circBRIP1 induction,[1],correlate to circBRIP1 induction
same,circBRIP1 levels,[2],"upregulated in breast, ovarian, and lung cell lines"
same,human circBRIP1 in PBMCs of donor blood,human PBMC,induced the presence of human circBRIP1 in a dose-responsive manner
same,linear BRIP1 in PBMCs of donor blood,human PBMC,not significantly changed
